Literature values as cited in patent publication US8518429B2, “Arsenic trioxide medical elution scaffold” (Beijing Amsino Medical Co., Ltd., priority 2007, dated 2013).

What was measured:
[1] = test system: VSMCs; details: found by Zhuoqi ZHANG et al. and Jianwei SHAO et al.
[2] = test system: promyelocytic leukemia; details: used by hematologists in 1970s

Substance: Arsenic trioxide [As2O3]
- effects on VSMCs [1]: anti-proliferation, apoptosis promotion and cell cycle arrest
- therapeutic effect in promyelocytic leukemia [2]: notable therapeutic effect
